IC50 data for three molecules are collected here from patent US9212184B2, “6-thio-substituted imidazo[1,2-a]pyrazines as Mps-1 inhibitors” (BAYER INTELLECTUAL PROPERTY GMBH, priority 2010, dated 2015).

The test deals with human kinase Mps-1 (Homo sapiens (Human), UniProt P33981). As to the kind of experiment: Mps-1 kinase assay (TR-FRET). Particulars: N-terminally GST-tagged human full length recombinant Mps-1; 10 μM ATP; 1 μM peptide substrate; 60 min at 22° C.; read-out: Mps1 IC50. It is filed as biochemical. Here is the method: The human kinase Mps-1 phosphorylates a biotinylated substrate peptide. Detection of the phosphorylated product is achieved by time-resolved fluorescence resonance energy transfer (TR-FRET) from Europium-labelled anti-phospho-Serine/Threonine antibody as donor to streptavidin labelled with cross-linked allophycocyanin (SA-XLent) as acceptor. Compounds are tested for their inhibition of the kinase activity.
human kinase Mps-1, sequence (P33981 whole entry): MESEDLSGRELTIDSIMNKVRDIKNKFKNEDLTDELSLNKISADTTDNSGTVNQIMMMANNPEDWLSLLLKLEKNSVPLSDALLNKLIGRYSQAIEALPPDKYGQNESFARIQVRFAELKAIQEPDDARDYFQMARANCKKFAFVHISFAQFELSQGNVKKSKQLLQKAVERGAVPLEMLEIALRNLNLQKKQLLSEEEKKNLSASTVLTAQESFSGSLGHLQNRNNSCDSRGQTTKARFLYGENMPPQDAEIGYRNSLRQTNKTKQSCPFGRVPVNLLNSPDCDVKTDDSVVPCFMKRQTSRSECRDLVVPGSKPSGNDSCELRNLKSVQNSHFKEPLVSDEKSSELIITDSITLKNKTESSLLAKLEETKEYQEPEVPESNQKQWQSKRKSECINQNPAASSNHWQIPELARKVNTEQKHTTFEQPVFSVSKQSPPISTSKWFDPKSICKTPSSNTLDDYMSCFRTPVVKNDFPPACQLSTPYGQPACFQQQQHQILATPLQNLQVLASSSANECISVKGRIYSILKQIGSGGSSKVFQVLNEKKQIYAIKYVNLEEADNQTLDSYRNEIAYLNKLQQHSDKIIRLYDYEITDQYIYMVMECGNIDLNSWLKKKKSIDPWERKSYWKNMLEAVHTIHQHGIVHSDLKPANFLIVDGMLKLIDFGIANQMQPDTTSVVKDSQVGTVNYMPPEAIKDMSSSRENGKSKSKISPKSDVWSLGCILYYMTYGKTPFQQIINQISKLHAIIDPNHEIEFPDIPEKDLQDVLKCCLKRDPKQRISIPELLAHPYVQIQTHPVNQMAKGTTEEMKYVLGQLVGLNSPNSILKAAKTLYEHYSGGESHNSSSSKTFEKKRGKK
N-terminally GST-tagged human full length recombinant Mps-1 kinase (purchased from Invitrogen, Karslruhe, Germany, cat. no PV4071) was used. As substrate for the kinase reaction a biotinylated peptide of the amino-acid sequence PWDPDDADITEILG (C-terminus in amide form, purchased from Biosynthan GmbH, Berlin) was used.
For the assay 50 nL of a 100-fold concentrated solution of the test compound in DMSO was pipetted into a black low volume 384 well microtiter plate (Greiner Bio-One, Frickenhausen, Germany), 2 μl of a solution of Mps-1 in assay buffer [0.1 mM sodium-ortho-vanadate, 10 mM MgCl2, 2 mM DTT, 25 mM Hepes pH 7.7, 0.05% BSA, 0.001% Pluronic F-127] were added and the mixture was incubated for 15 min at 22° C. to allow pre-binding of the test compounds to Mps-1 before the start of the kinase reaction. […]
The resulting mixture was incubated 1 h at 22° C. to allow the binding of the phosphorylated peptide to the anti-phospho(Ser/Thr)-Europium-antibody. Subsequently the amount of phosphorylated substrate was evaluated by measurement of the resonance energy transfer from the Europium-labelled anti-phospho(Ser/Thr) antibody to the Streptavidin-XLent. Therefore, the fluorescence emissions at 620 nm and 665 nm after excitation at 350 nm was measured in a Viewlux TR-FRET reader (PerkinElmer LAS, Rodgau-Jügesheim, Germany). The “blank-corrected normalized ratio” (a Viewlux specific readout, similar to the traditional ratio of the emissions at 665 nm and at 622 nm, in which blank and Eu-donor crosstalk are subtracted from the 665 nm signal before the ratio is calculated) was taken as the measure for the amount of phosphorylated substrate. […]
(TR-FRET usually uses a lanthanide donor and a delayed reading to cut background.)

The IC50 is the concentration that inhibits the measured activity by half. Consider `CSc1cn2c(-c3ccc(C(=O)NC4CC4)cc3)cnc2c(NCC(C)C)n1` [Example 1-2, N-cyclopropyl-4-{8-[(2-methylpropyl)amino]-6-(methylsulfanyl)imidazo[1,2-a]pyrazin-3-yl}benzamide], for which the IC50 was 5 nM. The same measure for `CSc1cn2c(-c3ccc(C(=O)NC4CC4)c(C)c3)cnc2c(NCC(C)(C)O)n1` [Example 1-4, N-cyclopropyl-4-{8-[(2-hydroxy-2-methylpropyl)amino]-6-(methylsulfanyl)imidazo [1,2-a]pyrazin-3-yl}-2-methylbenzamide]: 64.8 nM; for `CSc1cn2c(-c3ccc(C(=O)NC4CC4)c(C)c3)cnc2c(NCCC(F)(F)F)n1` [Example 1-3, N-cyclopropyl-2-methyl-4-{6-(methylsulfanyl)-8-[(3,3,3-trifluoropropyl)amino]imidazo[1,2-a]pyrazin-3-yl} benzamide]: 8.6 nM.
